Read-outs that look alike come from different tables or passages of the source.
Legend:
[1] = test system: non-expressing oocytes; assay type: cell-based, Xenopus laevis; conditions: non-expressing oocytes, total [3H]CQ transport, normalised to the oocyte type control
In short: (§1)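 Oocytes (ten per treatment, ≥4 independent frogs/days) were preloaded by injecting VF-6 in 25 nL ND96 at pH 5.0, 5.5, 6.0 or 7.0, or Na^+-free choline buffer, then uptake run 1.5 h, 27.5 °C, ND96 pH 5.5 by default. Internal concentrations assumed ~400 nL oocyte volume.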

[2] = target: T1, PfCRT^Ecu1110 (Plasmodium falciparum, UniProt Q9N623, A220S/I356L/K76T/N326D); assay: cell-based; assay type: cell-based; conditions: for Uptake of [3H]CQ (% PfCRTEcu1110 control), trans-stimulation / PfCRT-mediated [3H]CQ transport, trans-stimulation (% PfCRTEcu1110 control): PfCRTEcu1110 oocytes; for Uptake of [3H]CQ (% PfCRTEcu1110 control), trans-stimulation: total [3H]CQ transport, normalised to the oocyte type control; for PfCRT-mediated [3H]CQ transport, trans-stimulation (% PfCRTEcu1110 control): normalised to oocyte type control; for [3H]CQ transport (% PfCRTDd2 control), trans-stimulation, PfCRTEcu1110: PfCRT-mediated component (background subtracted), sheet title says normalised to PfCRTDd2 control, mean ± SEM, SEM
T1 sequence (Q9N623 whole entry A220S/I356L/K76T/N326D): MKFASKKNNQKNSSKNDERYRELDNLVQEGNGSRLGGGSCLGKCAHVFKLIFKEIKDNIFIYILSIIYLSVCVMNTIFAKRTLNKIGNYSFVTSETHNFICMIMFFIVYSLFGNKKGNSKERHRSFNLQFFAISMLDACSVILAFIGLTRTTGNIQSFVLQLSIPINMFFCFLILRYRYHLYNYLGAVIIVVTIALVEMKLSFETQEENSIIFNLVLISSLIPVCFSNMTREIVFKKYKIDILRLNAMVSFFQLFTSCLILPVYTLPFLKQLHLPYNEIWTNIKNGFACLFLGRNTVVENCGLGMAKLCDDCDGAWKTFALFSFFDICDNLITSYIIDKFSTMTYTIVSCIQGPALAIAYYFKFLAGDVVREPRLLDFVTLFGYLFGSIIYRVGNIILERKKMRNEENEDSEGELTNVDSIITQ
In short: as §1

[3] = target: T2, PfNT1 (Plasmodium falciparum, UniProt Q8IDM6); assay: cell-based; assay type: cell-based; conditions: PfNT1 oocytes, total [3H]CQ transport, normalised to the oocyte type control
T2 construct: expressed in transfected cells; host or cells: Xenopus laevis oocytes (stage V-VI), cRNA-injected
T2 sequence (Q8IDM6 whole entry): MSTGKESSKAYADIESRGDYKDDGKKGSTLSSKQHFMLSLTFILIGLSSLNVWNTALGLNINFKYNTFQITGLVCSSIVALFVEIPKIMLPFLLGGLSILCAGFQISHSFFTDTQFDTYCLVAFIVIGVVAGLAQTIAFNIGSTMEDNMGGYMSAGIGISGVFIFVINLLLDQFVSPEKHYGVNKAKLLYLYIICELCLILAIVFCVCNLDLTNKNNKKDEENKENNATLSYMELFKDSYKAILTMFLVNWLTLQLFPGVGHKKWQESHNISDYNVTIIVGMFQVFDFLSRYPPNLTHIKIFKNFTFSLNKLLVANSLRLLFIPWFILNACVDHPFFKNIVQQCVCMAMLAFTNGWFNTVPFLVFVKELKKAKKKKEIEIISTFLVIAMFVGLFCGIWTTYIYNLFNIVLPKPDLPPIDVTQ
In short: as §1

[4] = target: T3, PfCRT^3D7 (Plasmodium falciparum, UniProt Q8IBZ9); assay: cell-based; assay type: cell-based; conditions: PfCRT3D7 oocytes; for Uptake of [3H]CQ (% PfCRT3D7 control), trans-stimulation: total [3H]CQ transport, normalised to the oocyte type control; for PfCRT-mediated [3H]CQ transport, trans-stimulation (% PfCRT3D7 control): normalised to oocyte type control
T3 sequence (Q8IBZ9 59-398): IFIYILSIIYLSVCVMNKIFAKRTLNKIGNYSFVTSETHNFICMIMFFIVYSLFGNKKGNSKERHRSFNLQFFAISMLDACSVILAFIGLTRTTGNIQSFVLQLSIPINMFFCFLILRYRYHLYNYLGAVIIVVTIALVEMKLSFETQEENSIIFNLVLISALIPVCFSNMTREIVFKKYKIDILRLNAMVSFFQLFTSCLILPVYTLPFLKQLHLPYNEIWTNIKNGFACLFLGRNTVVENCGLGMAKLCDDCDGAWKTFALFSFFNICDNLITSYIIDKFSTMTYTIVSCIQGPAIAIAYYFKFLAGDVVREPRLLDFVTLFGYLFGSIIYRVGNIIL
In short: as §1

[5] = target: T4, PfCRT^Dd2 (Plasmodium falciparum, UniProt Q9N623, A220S/I356T/K76T/M74I/N326S/N75E/Q271E/R371I); assay: cell-based; assay type: cell-based; conditions: for PfCRT-mediated [3H]CQ transport, trans-stimulation (% PfCRTDd2 control): normalised to oocyte type control; for [3H]CQ transport (% PfCRTDd2 control), trans-stimulation, PfCRTDd2: PfCRT-mediated component (background subtracted), mean ± SEM, SEM
T4 sequence (Q9N623 whole entry A220S/I356T/K76T/M74I/N326S/N75E/Q271E/R371I): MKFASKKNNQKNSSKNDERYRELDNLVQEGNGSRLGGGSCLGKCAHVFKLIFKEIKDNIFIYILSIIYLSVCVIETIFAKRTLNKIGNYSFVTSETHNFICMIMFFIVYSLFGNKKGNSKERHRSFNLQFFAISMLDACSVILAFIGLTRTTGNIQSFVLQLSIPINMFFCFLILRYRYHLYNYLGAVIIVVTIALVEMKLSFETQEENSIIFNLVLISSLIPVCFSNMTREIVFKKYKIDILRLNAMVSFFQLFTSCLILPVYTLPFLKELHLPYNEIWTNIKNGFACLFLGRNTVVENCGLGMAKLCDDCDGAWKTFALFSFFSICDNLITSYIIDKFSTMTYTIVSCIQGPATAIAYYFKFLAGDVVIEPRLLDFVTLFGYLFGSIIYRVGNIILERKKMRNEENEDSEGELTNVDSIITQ
In short: as §1

[6] = target: T3, PfCRT^3D7; assay: cell-based; assay type: cell-based; conditions: PfCRT3D7 oocytes, total [3H]CQ transport, normalised to the oocyte type control
In short: (§2)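 Using pH 5.5 ND96 at 27.5 °C, uptake is followed for 1.5 h, stopped with ice-cold buffer, and quantified as accumulated radioactivity per oocyte after SDS lysis.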

[7] = test system: non-expressing oocytes; assay: cells; assay type: cell-based, Xenopus laevis; conditions: non-expressing oocytes, total [3H]CQ transport, normalised to the oocyte type control
In short: as §2

[8] = target: T1, PfCRT^Ecu1110; assay: [3H]CQ uptake into Xenopus oocytes, cis-inhibition by unlabelled solute; assay type: cell-based; conditions: for Uptake of [3H]CQ (% PfCRTEcu1110 control), cis-inhibition / PfCRT-mediated [3H]CQ transport, cis-inhibition (% PfCRTEcu1110 control): PfCRTEcu1110 oocytes; for Uptake of [3H]CQ (% PfCRTEcu1110 control), cis-inhibition: total [3H]CQ transport, normalised to the oocyte type control; for PfCRT-mediated [3H]CQ transport, cis-inhibition (% PfCRTEcu1110 control): background [3H]CQ accumulation subtracted, normalised to oocyte type control; for [3H]CQ transport (% PfCRTEcu1110 control), cis-inhibition, PfCRTEcu1110: PfCRT-mediated component (background subtracted), sheet title says normalised to PfCRTDd2 control, mean ± SEM, SEM
In short: as §2

[9] = target: T4, PfCRT^Dd2; assay: as above; assay type: cell-based; conditions: PfCRTDd2 oocytes, background [3H]CQ accumulation subtracted, normalised to oocyte type control
In short: as §2

[10] = [test solute]i = 45 mM (30 mM for some solutes due to solubility)
[11] = [test solute]i = 5 mM (intracellular)
[12] = [test solute]i = 45 mM (intracellular; 30 mM for some solutes due to solubility)
[13] = [test solute]i = 5 mM (injected)

GGYR [GR-4]
Uptake of [3H]CQ (% non-expressing oocyte control), trans-stimulation ([1]; [test solute]i = 5 mM): 100 ± 2.7 % non-expressing oocyte control | Uptake of [3H]CQ (% non-expressing oocyte control), trans-stimulation [1, 10]: 97 ± 2.5 % non-expressing oocyte control | Uptake of [3H]CQ (% PfCRTEcu1110 control), trans-stimulation ([2]; [test solute]i = 5 mM): 99 ± 3.2 % PfCRTEcu1110 control | Uptake of [3H]CQ (% PfCRTEcu1110 control), trans-stimulation [2, 10]: 100 ± 3.2 % PfCRTEcu1110 control | PfCRT-mediated [3H]CQ transport, trans-stimulation (% PfCRTEcu1110 control) [2, 11]: 97 ± 4.1 % PfCRTEcu1110 control | PfCRT-mediated [3H]CQ transport, trans-stimulation (% PfCRTEcu1110 control) [2, 12]: 98 ± 4.3 % PfCRTEcu1110 control | [3H]CQ transport (% PfCRTDd2 control), trans-stimulation, PfCRTEcu1110 [2, 13]: 29 ± 1.5 % PfCRTEcu1110 control | [3H]CQ transport (% PfCRTDd2 control), trans-stimulation, PfCRTEcu1110 [2, 10]: 30 ± 1.2 % PfCRTEcu1110 control | Uptake of [3H]CQ (% PfNT1 control), trans-stimulation ([3]; [test solute]i = 5 mM): 99 ± 3.2 % PfNT1 control | Uptake of [3H]CQ (% PfNT1 control), trans-stimulation [3, 10]: 100 ± 3.7 % PfNT1 control | Uptake of [3H]CQ (% PfCRT3D7 control), trans-stimulation ([4]; [test solute]i = 5 mM): 100 ± 2.6 % PfCRT3D7 control | Uptake of [3H]CQ (% PfCRT3D7 control), trans-stimulation [4, 10]: 99 ± 2.6 % PfCRT3D7 control | PfCRT-mediated [3H]CQ transport, trans-stimulation (% PfCRT3D7 control) [4, 11]: 98 ± 3.3 % PfCRT3D7 control | PfCRT-mediated [3H]CQ transport, trans-stimulation (% PfCRT3D7 control) [4, 12]: 97 ± 4.2 % PfCRT3D7 control | Uptake of [3H]CQ (% PfCRTDd2 control), trans-stimulation ([5]; PfCRTDd2 oocytes, [test solute]i = 45 mM (30 mM for some solutes due to solubility), total [3H]CQ transport, normalised to the oocyte type control): 103 ± 3.6 % PfCRTDd2 control | PfCRT-mediated [3H]CQ transport, trans-stimulation (% PfCRTDd2 control) ([5]; [test solute]i = 5 mM (intracellular), PfCRTDd2 oocytes): 99 ± 2.9 % PfCRTDd2 control | PfCRT-mediated [3H]CQ transport, trans-stimulation (% PfCRTDd2 control) ([5]; [test solute]i = 45 mM (intracellular; 30 mM for some solutes due to solubility), PfCRTDd2 oocytes): 100 ± 4.9 % PfCRTDd2 control | [3H]CQ transport (% PfCRTDd2 control), trans-stimulation, PfCRTDd2 [5, 13]: 99 ± 2.9 % PfCRTDd2 control | [3H]CQ transport (% PfCRTDd2 control), trans-stimulation, PfCRTDd2 [5, 10]: 100 ± 4.9 % PfCRTDd2 control | Uptake of [3H]CQ (% PfCRT3D7 control), cis-inhibition ([6]; [test solute] = 0.5 mM): 102 ± 4.3 % PfCRT3D7 control | Uptake of [3H]CQ (% PfCRT3D7 control), cis-inhibition ([6]; [test solute] = 1 mM): 98 ± 4.8 % PfCRT3D7 control | Uptake of [3H]CQ (% PfCRT3D7 control), cis-inhibition ([6]; [test solute] = 2 mM): 102 ± 5.8 % PfCRT3D7 control | Uptake of [3H]CQ (% non-expressing oocyte control), cis-inhibition ([7]; [test solute] = 0.5 mM): 99 ± 5.2 % non-expressing oocyte control | Uptake of [3H]CQ (% non-expressing oocyte control), cis-inhibition ([7]; [test solute] = 2 mM): 100 ± 3.6 % non-expressing oocyte control | Uptake of [3H]CQ (% PfCRTEcu1110 control), cis-inhibition ([8]; [test solute] = 0.5 mM): 78 ± 6.9 % PfCRTEcu1110 control | Uptake of [3H]CQ (% PfCRTEcu1110 control), cis-inhibition ([8]; [test solute] = 1 mM): 65 ± 7.1 % PfCRTEcu1110 control | Uptake of [3H]CQ (% PfCRTEcu1110 control), cis-inhibition ([8]; [test solute] = 2 mM): 53 ± 4.7 % PfCRTEcu1110 control | PfCRT-mediated [3H]CQ transport, cis-inhibition (% PfCRTEcu1110 control) ([8]; [test solute] = 0.5 mM): 71 ± 2.5 % PfCRTEcu1110 control | PfCRT-mediated [3H]CQ transport, cis-inhibition (% PfCRTEcu1110 control) ([8]; [test solute] = 1 mM): 59 ± 2.4 % PfCRTEcu1110 control | PfCRT-mediated [3H]CQ transport, cis-inhibition (% PfCRTEcu1110 control) ([8]; [test solute] = 2 mM): 48 ± 3.1 % PfCRTEcu1110 control | [3H]CQ transport (% PfCRTEcu1110 control), cis-inhibition, PfCRTEcu1110 ([8]; [test solute] = 1 mM): 19 ± 0.1 % PfCRTEcu1110 control | [3H]CQ transport (% PfCRTEcu1110 control), cis-inhibition, PfCRTEcu1110 ([8]; [test solute] = 2 mM): 15 ± 0.6 % PfCRTEcu1110 control | PfCRT-mediated [3H]CQ transport, cis-inhibition (% PfCRTDd2 control) ([9]; [test solute] = 0.5 mM): 71 ± 2.9 % PfCRTDd2 control | PfCRT-mediated [3H]CQ transport, cis-inhibition (% PfCRTDd2 control) ([9]; [test solute] = 1 mM): 58 ± 4.2 % PfCRTDd2 control | PfCRT-mediated [3H]CQ transport, cis-inhibition (% PfCRTDd2 control) ([9]; [test solute] = 2 mM): 40 ± 2.1 % PfCRTDd2 control

Reference: paper PMC7413254 (Nature Communications, 2020)
